In one assay the target is T1, P2X7 receptor (Homo sapiens, UniProt Q99572).
T1 construct: host or cells: SH-SY5Y
T1 sequence (Q99572 1-595): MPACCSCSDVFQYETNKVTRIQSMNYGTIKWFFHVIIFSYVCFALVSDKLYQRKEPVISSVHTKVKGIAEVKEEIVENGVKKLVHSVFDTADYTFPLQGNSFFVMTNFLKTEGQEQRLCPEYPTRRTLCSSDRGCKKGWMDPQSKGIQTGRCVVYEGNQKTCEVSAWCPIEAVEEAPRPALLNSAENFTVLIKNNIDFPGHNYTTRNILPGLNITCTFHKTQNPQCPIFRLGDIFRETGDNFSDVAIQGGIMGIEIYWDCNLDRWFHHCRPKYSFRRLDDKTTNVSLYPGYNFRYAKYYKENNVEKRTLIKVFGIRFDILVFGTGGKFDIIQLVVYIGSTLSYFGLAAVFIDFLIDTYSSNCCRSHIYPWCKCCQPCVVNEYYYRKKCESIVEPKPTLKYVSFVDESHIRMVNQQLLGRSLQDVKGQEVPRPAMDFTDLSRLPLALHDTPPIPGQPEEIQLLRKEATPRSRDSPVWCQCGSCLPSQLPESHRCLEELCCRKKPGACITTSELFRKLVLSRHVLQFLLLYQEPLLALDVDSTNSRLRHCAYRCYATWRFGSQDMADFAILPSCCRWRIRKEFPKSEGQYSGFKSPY
In words: P2X7 calcium mobilization assay, high throughput, antagonist activity (Example 4A).
Conditions: not given
It counts as cell-based. The procedure, abridged: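 Cells plated 100,000/well the day before; after 1 h dye loading and one rinse, cells were preincubated 1 h at room temperature with test compound. Calcium mobilization then read on FLIPR^TETRA; maximum RFU corrected by subtracting mean no-agonist response and referenced to mean agonist-control maximum.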
Consider `C[C@@H](CO)NCc1cn2c(C(=O)NCC34CC5CC(CC(C5)C3)C4)cccc2n1` [Compound 66, N-(adamantan-1-ylmethyl)-2-({[(1S)-2-hydroxy-1-methylethyl]amino}methyl)imi-dazo[1,2-a]pyridine-5-carboxamide], for which the IC50 was less than 2000 nM.

In the case of `CC(C)N(CCO)Cc1cn2c(C(=O)NCC34CC5CC(CC(C5)C3)C4)cccc2n1` [Compound 132, N-(adamantan-1-ylmethyl)-2-{[(2-hydroxyethyl)(iso-propyl)amino]methyl}imi-dazo[1,2-a]pyridine-5-carboxamide], the IC50 is less than 2000 nM.

Turning to `O=C(Cc1cn2c(C(=O)NCC34CC5CC(CC(C5)C3)C4)cccc2n1)NCCCO` [Compound 27, N-(adamantan-1-ylmethyl)-2-{2-[(3-hydroxypropyl)amino]-2-oxoethyl}imi-dazo[1,2-a]pyridine-5-carboxamide], the half-inhibitory concentration (IC50) is less than 2000 nM.

As to `COCC1CCN(C(=O)c2cn3c(C(=O)NCC45CC6CC(CC(C6)C4)C5)cccc3n2)CC1` [Compound 87, N-(adamantan-1-ylmethyl)-2-{[4-(methoxy-methyl)piperidin-1-yl]carbonyl}imi-dazo[1,2-a]pyridine-5-carboxamide], the IC50 was less than 2000 nM.

Staying with this assay, now noted: 50% decrease in the fluorescence response of cells exposed to 80 μM 2′(3′)-O-(4-benzoyl-benzoyl)adenosine 5′-triphosphate; Example 4A; read-out: IC50.
In the case of `CC(C)[C@H]1CNCCN1C(=O)c1cn2c(C(=O)NCC34CC5CC(CC(C5)C3)C4)cccc2n1` [Compound 612, N-(adamantan-1-ylmethyl)-2-{[(2S)-2-isopropylpiperazin-1-yl]carbonyl}imidazo[1,2-a]pyridine-5-carboxamide], the IC50 was less than 2000 nM.

With `CC1(C)[C@@H]2CC[C@@H](CNC(=O)c3cccc4nc(CC(=O)N5CCCNCC5)cn34)[C@H]1C2` [Compound 560, 2-[2-(1,4-diazepan-1-yl)-2-oxoethyl]-N-{[(1R,2R,5R)-6,6-dimethylbicyclo[3.1.1]hept-2-yl]methyl}imidazo[1,2-a]pyridine-5-carboxamide], the IC50 is less than 2000 nM.

Consider `CCCN(C)C(=O)c1cn2c(C(=O)NC[C@@H]3CC[C@H]4C[C@@H]3C4(C)C)cccc2n1` [Compound 460, 5-N-{[(1S,2R,5S)-6,6-dimethylbicyclo[3.1.1]hept-2-yl]methyl}-2-N-methyl-2-N-propylimidazo[1,2-a]pyridine-2,5-dicarboxamide], for which the concentration for half-maximal inhibition (IC50) is less than 2000 nM.

Still in this assay, the particulars now being: 50% decrease in the fluorescence response of cells exposed to 80 μM of 2′(3′)-O-(4-benzoyl-benzoyl)adenosine 5′-triphosphate; Example 4A; read-out: IC50.
`CCc1ccc(CN(C)C(=O)c2cn3c(C(=O)NCC45CC6CC(CC(C6)C4)C5)cccc3n2)cn1` [Compound 712, 5-N-(adamantan-1-ylmethyl)-2-N-[(6-ethylpyridin-3-yl)methyl]-2-N-methylimidazo[1,2-a]pyridine-2,5-dicarboxamide]: the IC50 was less than 2000 nM.

For `O=C(NCC12CC3CC(CC(C3)C1)C2)c1cccc2nc(CC(=O)N3CC[C@@H](NCCO)C3)cn12` [Compound 726, N-(adamantan-1-ylmethyl)-2-(2-{(3R)-3-[(2-hydroxyethyl)amino]pyrrolidin-1-yl}-2-oxoethyl) imidazo[1,2-a]pyridine-5-carboxamide], the half-inhibitory concentration (IC50) was less than 2000 nM.

`CC(C)(C)OC(=O)C(C#N)Cc1cn2c(C(=O)NCC34CC5CC(CC(C5)C3)C4)cccc2n1` (centres unmarked) [Compound 806, tert-butyl 3-{5-[(adamantan-1-ylmethyl)carbamoyl]imidazo[1,2-a]pyridin-2-yl}-2-cyanopropanoate]: the IC50 was less than 2000 nM.

On to `CN(C)CCCNC(=O)c1cn2c(C(=O)NCC34CC5CC(CC(C5)C3)C4)cccc2n1` [Compound 647, 5-N-(adamantan-1-ylmethyl)-2-N-[3-(dimethylamino)propyl]imidazo [1,2-a]pyridine-2,5-dicarboxamide], for which the concentration for half-maximal inhibition (IC50) is less than 2000 nM.

On to `CC(C)N(CCCO)C(=O)c1cn2c(C(=O)NCC34CC5CC(CC(C5)C3)C4)cccc2n1` [Compound 695, 5-N-(adamantan-1-ylmethyl)-2-N-(3-hydroxypropyl)-2-N-isopropylimidazol[1,2-a]pyridine-2,5-dicarboxamide], for which the IC50 was less than 2000 nM.

As for `N[C@@H]1CCN(Cc2cn3c(C(=O)NCC(CC4CCC4)c4ccccc4)cccc3n2)C1` (some centres unmarked) [Compound 783, 2-[(3-aminopyrrolidin-1-yl)methyl]-N-(3-cyclobutyl-2-phenylpropyl) imidazo [1,2-a]pyridine-5-carboxamide], the IC50 is less than 2000 nM.

The assay is the same for the next values; noted with them: 50% decrease in the fluorescence response of cells exposed to 80 μM of 2′(3′)-O-(4-benzoyl-benzoyl)adenosine 5′-triphosphate; determined as in Example 4A; read-out: IC50.
Take `CC(C)CC(CNC(=O)c1cccc2nc(CN3CC[C@@H](O)C3)cn12)c1ccc(Cl)cc1` (stereo partly drawn) [Compound 942, N-[2-(4-chlorophenyl)-4-methylpentyl]-2-{[(3R)-3-hydroxypyrrolidin-1-yl]methyl} imidazo[1,2-a]pyridine-5-carboxamide]: the IC50 is less than 2000 nM.

For `CN(C)C1CCCN(C(=O)Cc2cn3c(C(=O)NCC4(c5cccnc5)CCCCC4)cccc3n2)C1` (centres unmarked) [Compound 893, 2-{2-[3-(dimethylamino)piperidin-1-yl]-2-oxoethyl}-N-[(1-pyridin-3-ylcyclohexyl)methyl] imidazo[1,2-a] pyridine-5-carboxamide], the IC50 was less than 2000 nM.

With `O=C(Cc1cn2c(C(=O)NCC3(c4ccc(C(F)(F)F)cc4)CCCCC3)cccc2n1)NCC1CC1` [Compound 860, 2-{2-[(cyclopropylmethyl)amino]-2-oxoethyl}-N-({1-[4-(trifluoromethyl)phenyl]cyclohexyl}methyl) imidazo[1,2-a] pyridine-5-carboxamide], the half-inhibitory concentration (IC50) is less than 2000 nM.

The same assay, now with this note: SH-SY5Y cells; 50% decrease in fluorescence response to 80 μM BzATP; read-out: IC50.
On to `CN1CCC(N(C)C(=O)c2cn3c(C(=O)NCC45CC6CC(CC(C6)C4)C5)cccc3n2)C1` (centres unmarked) [Compound 92, 5-N-(adamantan-1-ylmethyl)--methyl--(1-methylpyrrolidin-3-yl)imidazo[1,2-a]pyridine-2,5-dicarboxamide], for which the half-inhibitory concentration (IC50) is less than 2000 nM.

In the case of `O=C(Cc1cn2c(C(=O)NCC34CC5CC(CC(C5)C3)C4)cccc2n1)NC1CCC1` [Compound 151, N-(adamantan-1-ylmethyl)-2-[2-(cyclobutylamino)-2-oxoethyl]imidazo[1,2-a]pyridine-5-carboxamide], the IC50 is less than 2000 nM.

On to `CN(C(=O)c1cn2c(C(=O)NCC34CC5CC(CC(C5)C3)C4)cccc2n1)C1CCOC1` (centres unmarked) [Compound 90, 5-N-(adamantan-1-ylmethyl)--methyl-- (tetrahydrofuran-3-yl)imidazo[1,2-a]pyridine-2,5-dicarboxamide], for which the concentration for half-maximal inhibition (IC50) was less than 2000 nM.

Regarding `CN(C)CCN(C)C(=O)c1cn2c(C(=O)NCC34CC5CC(CC(C5)C3)C4)cccc2n1` [Compound 91, 5-N-(adamantan-1-ylmethyl)--[2-(dimethylamino)ethyl]-- methylimidazo[1,2-a]pyridine-2,5-dicarboxamide], the IC50 was less than 2000 nM.

On to `O=C(NCC12CC3CC(CC(C3)C1)C2)c1cccc2nc(CCN3C(=O)c4ccccc4C3=O)cn12` [Compound 137, N-(adamantan-1-ylmethyl)-2-[2-(1,3-dioxo-1,3-dihydro-2H-isoindol-2-yl)ethyl]imidazo[1,2-a]pyridine-5-carboxamide], for which the IC50 was less than 2000 nM.

In the case of `O=C(NCC12CC3CC(CC(C3)C1)C2)c1cccc2nc(CC(=O)N3CCCC3)cn12` [Compound 180, N-(adamantan-1-ylmethyl)-2-(2-oxo-2-pyrrolidin-1-ylethyl)imidazo[1,2-a]pyridine-5-carboxamide], the half-maximal inhibitory concentration (IC50) was less than 2000 nM.

The assay is the same for the next values; noted with them: fluorescence response of cells exposed to 80 μM 2′(3′)-O-(4-benzoyl-benzoyl)adenosine 5′-triphosphate; Example 4A; read-out: IC50.
On to `NCCc1cn2c(C(=O)NCC34CC5CC(CC(C5)C3)C4)cccc2n1` [Compound 297, N-(adamantan-1-ylmethyl)-2-(2-aminoethyl)imidazo [1,2-a]pyridine-5-carboxamide], for which the IC50 was less than 2000 nM.

Values taken from patent US8431593B2, “Heteroaryl amide derivatives” (H. Lundbeck A/S, priority 2006, dated 2013).
